{"source": "paper PMC2363649", "about": "“MDR1 causes resistance to the antitumour drug miltefosine” (British Journal of Cancer, 2001)", "key": {"ABC transporter YvcC": {"target": "T1, ABC transporter YvcC (Bacillus subtilis, UniProt O06967)", "T1 construct": "gene bmrA", "T1 sequence (O06967 1-589)": "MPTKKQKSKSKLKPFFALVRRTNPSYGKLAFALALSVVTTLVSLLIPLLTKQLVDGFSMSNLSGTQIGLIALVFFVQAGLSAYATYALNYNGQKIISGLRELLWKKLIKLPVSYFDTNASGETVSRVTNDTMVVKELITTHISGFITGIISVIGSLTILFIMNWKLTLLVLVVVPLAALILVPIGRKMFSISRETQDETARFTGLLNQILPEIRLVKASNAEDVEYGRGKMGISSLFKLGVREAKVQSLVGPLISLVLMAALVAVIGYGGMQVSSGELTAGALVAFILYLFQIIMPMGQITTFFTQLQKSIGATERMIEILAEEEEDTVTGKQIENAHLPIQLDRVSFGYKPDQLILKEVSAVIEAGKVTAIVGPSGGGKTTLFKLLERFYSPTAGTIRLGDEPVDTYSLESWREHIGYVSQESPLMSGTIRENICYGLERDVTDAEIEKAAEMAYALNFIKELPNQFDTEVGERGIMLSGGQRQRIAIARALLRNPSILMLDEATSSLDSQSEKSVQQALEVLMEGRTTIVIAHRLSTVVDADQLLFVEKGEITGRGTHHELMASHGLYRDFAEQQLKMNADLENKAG", "assay": "binding Kd (data not shown; method not stated)"}, "P-glycoprotein (PGP)": {"target": "T2, P-glycoprotein (PGP) (Cricetulus griseus, UniProt P21448)", "T2 construct": "gene ABCB1; highly purified PGP from CHR B30 cells, labelled with MIANS at two conserved cysteine residues within the Walker A motifs", "T2 sequence (P21448 whole entry)": "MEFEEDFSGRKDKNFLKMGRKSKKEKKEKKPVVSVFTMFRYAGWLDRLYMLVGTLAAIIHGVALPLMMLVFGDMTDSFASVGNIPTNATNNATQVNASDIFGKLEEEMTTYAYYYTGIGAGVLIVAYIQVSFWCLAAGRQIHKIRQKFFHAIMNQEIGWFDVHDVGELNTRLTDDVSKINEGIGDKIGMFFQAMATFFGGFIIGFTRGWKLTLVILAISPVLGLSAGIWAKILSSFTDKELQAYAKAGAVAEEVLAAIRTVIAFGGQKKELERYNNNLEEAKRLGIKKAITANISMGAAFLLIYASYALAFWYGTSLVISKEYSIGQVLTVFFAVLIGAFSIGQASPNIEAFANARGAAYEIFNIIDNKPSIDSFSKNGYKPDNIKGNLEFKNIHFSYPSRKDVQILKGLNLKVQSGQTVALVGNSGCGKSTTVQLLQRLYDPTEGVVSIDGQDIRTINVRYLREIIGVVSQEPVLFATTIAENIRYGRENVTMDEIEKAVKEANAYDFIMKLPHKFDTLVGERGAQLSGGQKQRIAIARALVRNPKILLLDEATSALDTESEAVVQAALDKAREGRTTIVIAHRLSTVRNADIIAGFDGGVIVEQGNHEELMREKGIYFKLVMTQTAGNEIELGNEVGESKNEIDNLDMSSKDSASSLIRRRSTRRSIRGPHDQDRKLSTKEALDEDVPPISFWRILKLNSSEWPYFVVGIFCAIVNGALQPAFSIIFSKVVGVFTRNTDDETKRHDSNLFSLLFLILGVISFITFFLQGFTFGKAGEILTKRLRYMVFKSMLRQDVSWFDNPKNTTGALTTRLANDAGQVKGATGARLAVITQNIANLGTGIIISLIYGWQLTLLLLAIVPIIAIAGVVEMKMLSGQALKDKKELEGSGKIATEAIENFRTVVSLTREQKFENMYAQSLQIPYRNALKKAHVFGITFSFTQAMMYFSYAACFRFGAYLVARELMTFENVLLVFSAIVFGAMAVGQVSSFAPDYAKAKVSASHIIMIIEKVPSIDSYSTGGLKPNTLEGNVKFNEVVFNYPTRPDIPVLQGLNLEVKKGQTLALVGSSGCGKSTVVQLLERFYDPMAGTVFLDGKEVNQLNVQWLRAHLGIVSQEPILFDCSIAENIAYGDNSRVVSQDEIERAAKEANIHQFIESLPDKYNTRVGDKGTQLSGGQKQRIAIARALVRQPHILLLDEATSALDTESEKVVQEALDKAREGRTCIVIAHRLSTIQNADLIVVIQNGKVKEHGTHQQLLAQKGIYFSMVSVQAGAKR", "assay": "MIANS-PGP fluorescence quenching titration", "assay_type": "binding"}}}
{"molecule": "CCCCCCCCCCCCCCCCOP(=O)([O-])OCC[N+](C)(C)C", "note": "[miltefosine]", "values": [{"measurement": "Kd", "setting": "ABC transporter YvcC", "result": "2 to 3", "unit": "µM"}, {"measurement": "Kd", "setting": "P-glycoprotein (PGP)", "result": "~7", "unit": "µM"}]}
